Data: patent publication US11129782B2, “Derivatives of PPD useful for coloring hair and skin” (National University of Singapore, priority 2017, dated 2021)

Test: Skin permeation in vertical Franz diffusion cells
Format: in vitro ADME, porcine
Procedure, shortened: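 Dermatomed porcine ear skin (~1.0 mm, barrier checked by TEWL) in vertical Franz cells at 37 °C, 0.64 cm^2 area, PBS receptor, donor of 1% w/v solutions in argon-purged water (n=3). Receptor sampled over 8 h with mass balance, LCMS quantification; flux and permeability coefficients from steady-state Fick's law fits.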

## Nc1ccc(N)cc1 [PPD, para-phenylenediamine, reference compound]
1% W/V applied, 8 h
  % Parent compound Penetrated (mean): 0.162%
  % converted to metabolite (mean): 3.17%
8 h
  Mass balance in the Franz cells: > 99%
mean
  Jss · 10^4 (steady state flux): 4.3 mg cm^−2 h^−1
  tlag (lag time): 4.2 h
pig, 1% W/V applied, 8 h, read-out: % Parent compound Recovery (mean)
  recovery at 8 h, 1 % w/v: 90.3%
pig, mean, read-out: kp · 10^5 (steady state permeability coefficient) (converted)
  Papp at 8 h, 1 % w/v: 1190 ×10⁻⁶ cm/s
Steady state, mean
  Dm · 10^4 (diffusion coefficient in skin): 5.00 cm^−2 h^−1
Steady state, mean, 1% w/v in water, 8 h
  Ks/d (skin-donor partition coefficient): 0.010
